The test system of one assay is fungal organisms. Briefly: Microtiter broth dilution assay of antifungal activity (MIC) in the presence and absence of 0.8M sorbitol. Format: cell-based. Conditions: for MIC: 48 h, read-out: Broth Dilution Assay MIC at 2 day growth, w/o sorbitol; for Broth Dilution Assay MIC at 2 day growth, with sorbitol: with 0.8M sorbitol; for Broth Dilution Assay MIC at 2 day growth, with sorbitol / Broth Dilution Assay MIC at 2 day growth, w/o sorbitol: final concentration of cells 2 × 10^5 organisms/ml; for Broth Dilution Assay MIC at 2 day growth, w/o sorbitol: without sorbitol. The protocol: Minimal inhibitory concentrations (MICs) of corynecandin related compounds in the microtiter broth dilution in the presence and absence of 0.8M sorbitol assay were determined by a broth dilution assay described by Frost, D., Brandt, K., Cugier, D., and Goldman, R. in J. Antibiotics 48: 306-310 (1995), which is incorporated herein by reference.
^a Assay conducted as described in Frost et al., ibid, except final
concentration of cells was 2 × 10^5 organisms/ml.

The target of the next assay is T1, (1,3)-β-Glucan Synthase (Candida albicans, UniProt A0A1D8PCT0).
T1 construct: integral plasma membrane protein
T1 sequence (A0A1D8PCT0 1-1897): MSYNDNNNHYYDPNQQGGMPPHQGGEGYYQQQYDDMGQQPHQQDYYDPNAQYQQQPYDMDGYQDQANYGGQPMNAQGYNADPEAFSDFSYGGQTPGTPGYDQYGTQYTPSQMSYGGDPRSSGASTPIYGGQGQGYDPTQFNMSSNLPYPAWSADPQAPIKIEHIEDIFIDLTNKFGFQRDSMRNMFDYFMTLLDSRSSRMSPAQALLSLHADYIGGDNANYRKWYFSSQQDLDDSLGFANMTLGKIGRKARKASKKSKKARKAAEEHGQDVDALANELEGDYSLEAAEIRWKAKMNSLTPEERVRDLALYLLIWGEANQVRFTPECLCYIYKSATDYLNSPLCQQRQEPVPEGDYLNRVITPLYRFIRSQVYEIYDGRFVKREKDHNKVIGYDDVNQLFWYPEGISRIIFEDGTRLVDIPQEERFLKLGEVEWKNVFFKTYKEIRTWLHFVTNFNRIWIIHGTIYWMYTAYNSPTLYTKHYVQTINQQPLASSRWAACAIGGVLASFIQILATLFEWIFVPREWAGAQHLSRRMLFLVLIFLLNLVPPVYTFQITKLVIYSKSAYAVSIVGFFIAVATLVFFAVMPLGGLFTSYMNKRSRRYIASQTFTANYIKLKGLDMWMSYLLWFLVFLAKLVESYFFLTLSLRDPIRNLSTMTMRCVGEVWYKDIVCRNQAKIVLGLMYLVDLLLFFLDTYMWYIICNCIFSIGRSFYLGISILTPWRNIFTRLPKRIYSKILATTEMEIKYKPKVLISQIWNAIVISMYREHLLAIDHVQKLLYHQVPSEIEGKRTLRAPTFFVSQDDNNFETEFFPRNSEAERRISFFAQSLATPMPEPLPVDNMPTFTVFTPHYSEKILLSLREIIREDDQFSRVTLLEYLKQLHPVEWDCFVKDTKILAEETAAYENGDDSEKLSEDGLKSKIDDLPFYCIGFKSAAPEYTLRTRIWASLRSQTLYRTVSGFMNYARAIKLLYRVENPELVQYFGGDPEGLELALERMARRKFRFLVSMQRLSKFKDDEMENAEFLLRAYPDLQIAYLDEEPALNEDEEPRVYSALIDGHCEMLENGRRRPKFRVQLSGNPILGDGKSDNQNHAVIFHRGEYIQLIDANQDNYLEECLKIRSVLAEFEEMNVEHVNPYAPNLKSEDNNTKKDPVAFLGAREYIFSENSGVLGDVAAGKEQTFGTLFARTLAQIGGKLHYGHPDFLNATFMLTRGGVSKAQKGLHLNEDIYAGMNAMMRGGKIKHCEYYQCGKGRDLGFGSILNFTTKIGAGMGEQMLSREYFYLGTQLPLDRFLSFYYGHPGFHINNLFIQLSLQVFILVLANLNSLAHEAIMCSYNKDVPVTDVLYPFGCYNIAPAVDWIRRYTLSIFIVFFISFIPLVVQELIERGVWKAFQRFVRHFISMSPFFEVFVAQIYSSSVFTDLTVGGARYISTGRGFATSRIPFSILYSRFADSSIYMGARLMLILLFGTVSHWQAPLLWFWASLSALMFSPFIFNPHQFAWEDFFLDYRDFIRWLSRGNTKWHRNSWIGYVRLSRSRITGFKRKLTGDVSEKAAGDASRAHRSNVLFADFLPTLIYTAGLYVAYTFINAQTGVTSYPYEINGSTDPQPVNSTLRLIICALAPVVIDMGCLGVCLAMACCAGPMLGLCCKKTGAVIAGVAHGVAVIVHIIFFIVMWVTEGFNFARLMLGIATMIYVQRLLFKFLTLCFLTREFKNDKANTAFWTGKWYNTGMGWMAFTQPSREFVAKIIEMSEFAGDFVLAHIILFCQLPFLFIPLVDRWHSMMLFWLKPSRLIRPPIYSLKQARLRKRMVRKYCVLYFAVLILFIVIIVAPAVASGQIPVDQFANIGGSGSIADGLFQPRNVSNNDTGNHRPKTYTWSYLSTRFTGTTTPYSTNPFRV
T1 sequence (O42825 1-195 partner): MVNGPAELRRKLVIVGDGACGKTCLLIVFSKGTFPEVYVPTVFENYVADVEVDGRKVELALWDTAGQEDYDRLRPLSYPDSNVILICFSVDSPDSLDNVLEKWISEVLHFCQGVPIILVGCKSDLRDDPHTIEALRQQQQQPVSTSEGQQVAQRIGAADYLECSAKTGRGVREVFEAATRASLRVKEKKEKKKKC
The experiment in a line: In vitro inhibition of (1,3)-β-glucan synthase activity. The assay is classed as biochemical. From the text: The fungal cell wall serves as a protective barrier and is essential for viability in a hypotonic environment. (1,3)-β-Glucan is a component of the Candida albicans cell wall, and the enzyme that biosynthesizes this polymer, glucan synthase, is not present in higher eukaryotes. (Glucan synthase is an integral plasma membrane protein that catalyzes polymerization of uridine diphosphate-glucose (UDP-Glc) into β-glucan.) Accordingly, glucan synthase represents an ideal target for the development of antifungal agents.
The assay was conducted as described by Frost, D., Brandt, K. Capobioanco, and Goldman, R., Microbiology 140: 2239-2246 (1994) which is incorporated herein by reference.

Values after ≈ are worked out from the molar mass of the structure shown. Numbered stars: 1 amine (or outer) side, 2 acyl side, 3 side chain; on linkers, the order of the positions; unused ones are H or OH. Bridge positions count the residues as written; N and C are the ends. Square brackets hold non-standard residues; d marks the D form. Peptide text beside a SMILES is read from it. * marks the point of attachment. Orn(4R-OH,5R-OH) = O=C([C@H](C[C@@H](O)[C@@H](O)N[*:3])N[*:1])[*:2]; hTyr(3S-OH,4S-OH) = N[C@H](C(=O)O)[C@H](O)[C@@H](O)c1ccc(O)cc1; Pro(3S-OH,4S-Me) = C[C@H]1CN[C@H](C(=O)O)[C@H]1O; Benzoyl(4-octyloxy) = CCCCCCCCOc1ccc(C(=O)*)cc1; Hyp = O=C(O)[C@@H]1C[C@@H](O)CN1

In the case of `CCCCCCCCOc1ccc(C(=O)N[C@H]2C[C@@H](O)[C@@H](O)NC(=O)[C@@H]3[C@@H](O)[C@@H](C)CN3C(=O)[C@H]([C@@H](C)O)NC(=O)[C@H]([C@H](O)[C@@H](O)c3ccc(O)cc3)NC(=O)[C@@H]3C[C@@H](O)CN3C(=O)[C@H]([C@@H](C)O)NC2=O)cc1` [Cilofungin] ({Benzoyl(4-octyloxy)}-[Orn(4R-OH,5R-OH)]T[Hyp][hTyr(3S-OH,4S-OH)]T[Pro(3S-OH,4S-Me)]; lactam 1-C), in the assay with fungal organisms, the MIC came out at 980 µg/mL (≈ 951 µM).

`CCC(O)/C=C/C=C/C=C/C(=O)OC[C@H]1O[C@@H](O[C@H]2[C@H](OC(=O)/C=C/C=C/CC(O)/C(C)=C/C=C/CCC(C)CC)[C@@H](O)[C@@]3(OCc4cc(O)cc(O)c43)O[C@@H]2CO)[C@H](O)[C@@H](O)[C@H]1O` (stereo partly shown) [Papulacandin B]: in the assay with fungal organisms, the “Broth Dilution Assay MIC at 2 day growth, with sorbitol” value was greater than 250 mg/mL and the “Broth Dilution Assay MIC at 2 day growth, w/o sorbitol” value worked out at 1.96 mg/mL. Moreover, the “In Vitro Inhibition of (1,3)-β-Glucan Synthase Activity IC50” value at (1,3)-β-Glucan Synthase worked out at 1.9 µg/mL.

Regarding `CCCCC/C=C\C=C\C(=O)OC[C@H]1O[C@@H](O[C@H]2[C@H](OC(=O)/C(C)=C/C=C/CC(O)C(C)CC)[C@@H](O)[C@H](c3c(O)cc(O)cc3CO)O[C@@H]2CO)[C@H](O)[C@@H](O)[C@H]1O` (stereo partly shown) [Corynecandin], the MIC with fungal organisms turned out to be 980 µg/mL (≈ 1210 µM). Moreover, the “Rescue of cell growth by sorbitol” value in the assay with fungal organisms (cells treated with compound, sorbitol present) is “Sorbitol could rescue the growth of cells”.

With Fusacandin, in the assay on fungal organisms, the “Broth Dilution Assay MIC at 2 day growth, with sorbitol” value was greater than 250 mg/mL and the “Broth Dilution Assay MIC at 2 day growth, w/o sorbitol” value worked out at 1.96 mg/mL. Further, the “In Vitro Inhibition of (1,3)-β-Glucan Synthase Activity IC50” value on (1,3)-β-Glucan Synthase is 25.0 µg/mL.

Regarding `C[C@@H]1[C@H](O)[C@@H](C)/C=C/C=C/C=C/C=C/C=C/C=C/C=C/[C@H](O[C@@H]2O[C@H](C)[C@@H](O)[C@H](N)[C@@H]2O)C[C@@H]2O[C@](O)(C[C@@H](O)C[C@@H](O)[C@H](O)CC[C@@H](O)C[C@@H](O)CC(=O)O[C@H]1C)C[C@H](O)[C@H]2C(=O)O` [Amphotericin B], the MIC in the assay with fungal organisms was 480 µg/mL (≈ 519 µM).

Source of the values: US5863773A, “Antifungal corynecandin” (Abbott Laboratories, priority 1997, dated 1999).
